Assay results published in article PMC9920986 (Molecules, 2023).
Like-named read-outs stand apart in the source and are kept apart here.

Assays:
NQO2 = settings: cited from earlier work; for IC50: Figure 1
[1] = target: T1, human recombinant NRH:quinone oxidoreductase (NQO2) (Homo sapiens, UniProt P16083); assay: biochemical; settings: for inhibition at 10 µM: read-out: NQO2 Inhibition, %
T1 construct: purchased Sigma Q0380
T1 sequence (P16083 1-231): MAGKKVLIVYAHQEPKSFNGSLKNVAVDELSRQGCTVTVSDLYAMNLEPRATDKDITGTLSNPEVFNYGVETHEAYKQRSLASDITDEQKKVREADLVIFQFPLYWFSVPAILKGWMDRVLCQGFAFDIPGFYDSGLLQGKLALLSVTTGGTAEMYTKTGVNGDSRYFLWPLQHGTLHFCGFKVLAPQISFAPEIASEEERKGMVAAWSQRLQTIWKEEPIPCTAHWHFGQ
Description: The inhibition activity of all synthesized compounds at a concentration of 10 µM was preliminarily tested in vitro using human recombinant NRH:quinone oxidoreductase (NQO2).
The activity of recombinant human NQO2 (Sigma #Q0380, St. Louis, […], USA) was evaluated kinetically using menadione and N-benzyl-dihydronicotinamide (BNAH) as the substrate and co-substrate, respectively. All reagents and test compounds were dissolved in 50 mM Hepes-KOH (pH 7.4) containing 1 mM of β-octyl-D-glucopyranoside, 0.1 mg/mL BSA and 1 μM FAD. […] The solutions of the test compounds were pre-incubated for 5 min with 50 μL of human recombinant NQO2 (final concentration 42 ng/mL). Then, 25 μL of menadione was introduced at a final concentration of 100 μM. The reaction was started with 25 μL of 100 μM BNAH. The fluorescence of the co-substrate BNAH was followed at wavelengths of 370/440 nm at 37 °C using an Infinite M200 Pro microplate reader (Tecan, Grödig, Austria). The fluorescence data was fit according to a one-phase decay nonlinear regression to obtain slope values with Prism 8.0 (GraphPad Inc., San Diego, CA, USA). The activity in sample wells were normalized against negative control and enzyme-blank samples.

[2] = Antiproliferative assay (MTT colorimetric test, 72 h); format: cell-based; settings: human, n.a. = not active, read-out: A549, CC50
From the text: (§1) The cytotoxicity of the synthesized oxindoles was studied using the A549 cell line in which the levels of NQO2 are increased (Table 4). […] The cytotoxicity of the compounds may be due to the inhibition of other enzymes associated with the activation of apoptosis in cancer cells, for example GSK3b or tyrosine kinases, or with the general non-specific toxicity of these compounds. Thus, the influence of NQO2 on A549 cell viability has not been established.
(§2) The A549 cells were maintained in F12-K (Gibco, Paisley, UK) supplemented with 10% fetal bovine serum (FBS, Gibco, UK), penicillin (100 UI mL^−1), streptomycin (100 µg mL^−1) and GlutaMax (2 mM, Gibco, UK). All cells line were cultured under a humidified atmosphere of 95% air/5% CO2 at 37 °C. Subconfluent monolayers, in the log growth phase, were harvested by a brief treatment with TrypLE Express solution (Gibco, UK) in phosphate-buffered saline (PBS, Capricorn Scientific, Ebsdorfergrund, Germany) and washed three times in serum-free PBS. The number of viable cells was determined by trypan blue exclusion.
(§3) The effects of the synthesized compounds on cell viability were determined using the MTT colorimetric test. All examined cells were diluted with the growth medium to 3.5 × 10^4 cells per mL and the aliquots (7 × 10^3 cells per 200 μL) were placed in individual wells in 96-multiplates (Eppendorf, Germany) and incubated for 24 h. […] After incubation, the cells were then treated with 40 μL MTT solution (3-(4,5-dimethylthiazol-2-yl)-2,5-diphenyltetrazolium bromide, 5 mg mL^−1 in PBS) and incubated for 4 h. After an additional 4 h incubation, the medium with MTT was removed and DMSO (150 μL) was added to dissolve the formazan crystals. The plates were shaken for 10 min. The optical density of each well was determined at 560 nm using a microplate reader GloMax Multi+ (Promega, Madison, WI, USA). Each of the tested compounds was evaluated for cytotoxicity in three separate experiments.

A549 cell line = assay: as above; format: cell-based; settings: n.a. = not active
From the text: as §1, §2, §3

[3] = recombinant human NQO2, 100 μM menadione, 100 μM BNAH, read-out: NQO2 IC50 ± SEM

Molecule | CC50 at 72 h [2] | inhibition at 10 µM [1] | further results
COC(=O)Nc1ccc2[nH]cc(CCNC(C)=O)c2c1 [MCA-NAT] |  |  | IC50 (NQO2): 0.037 µM
O=C1Nc2ccccc2/C1=C\c1ccccn1 [Compound 1, (E)-3-(2-pyridinylmethylidene)-2-oxindole] | 48 ± 4.42 µM |  | IC50 [1]: > 50 µM
(E,Z)-3-(4-Fluorobenzylidene)-2-oxindole [Compound 33] |  |  | NQO2 Inhibition, % ([1]; inhibition at 10 µM concentration): 19.46%; IC50 [1, 3]: > 50 µM; CC50 (A549 cell line): 38.6 ± 10.4 µM
COc1ccc2[nH]cc(CCNC(C)=O)c2c1 [Melatonin] |  |  | IC50 (NQO2): 6 µM; NQO2 inhibition concentration range (NQO2): ~50 µM
O=C1Nc2ccc(Br)cc2C1=Cc1ccc(Br)cc1 (mixture of isomers) [Compound 31, 3-(4-bromobenzylidene)-5-bromo-2-oxindole] | 242 ± 3.19 µM | 68.6% | 
COc1cc(C=C2C(=O)Nc3ccc(NC(C)=O)cc32)cc(OC)c1OC [Compound 24, 3-(3,4,5-trimethoxybenzylidene)-5-acetylamino-2-oxindole] | 149 ± 2.63 µM |  | IC50 [1, 3]: 0.37 ± 0.01 µM
COc1ccc(C(=O)CC2(O)C(=O)Nc3ccc(Br)cc32)cc1 (stereo not shown) [Compound 50, 3-hydroxy-5-bromo-3-[2-(4-methoxyphenyl)-2-oxoethyl]-2-oxindole] | 474 ± 18.2 µM | 78.8% | 
O=C1Nc2ccccc2C1=Cc1cccnc1 [Compound 7, 3-(3-pyridinylmethylidene)-2-oxindole] | 67.5 ± 7.58 µM | 59.2% | 
Cc1n[nH]cc1C=C1C(=O)Nc2ccccc21 [Compound 43, 3-((3-methyl-1H-pyrazol-4-yl)methylene)-2-oxindole] | 219 µM |  | IC50 [1]: 7.61 ± 0.19 µM
CC(=O)Nc1ccc2c(c1)C(=Cc1ccccn1)C(=O)N2 [Compound 5, (E,Z)-3-(2-Pyridinylmethylidene)-5-acetamido-2-oxindole] | 136 µM |  | IC50 [1]: 41.1 ± 2.44 µM
O=C1Nc2ccc([N+](=O)[O-])cc2C1=Cc1ccco1 [Compound 36, 5-nitro-3-(2-furylmethylidene)-2-oxindole] | 329 ± 17 µM | 59.5% | 
O=C1Nc2ccccc2C1=Cc1ccco1 [Compound 34, 3-(2-furylmethylidene)-2-oxindole] | 595 ± 25.4 µM | 59.9% | 
Cc1ccc(C(=O)CC2(O)C(=O)Nc3ccccc32)cc1 (stereo not shown) [Compound 52, 3-hydroxy-3-[2-(4-methylphenyl)-2-oxoethyl]-2-oxindole] | 171 ± 13.4 µM |  | IC50 [1, 3]: > 50 µM
COc1ccc(C=C2C(=O)Nc3ccccc32)cc1 [Compound 20, 3-((4-methoxyphenyl)methylene)-2-oxindole] | 54.8 µM | 40.8% | 
COc1cc(C=C2C(=O)Nc3ccccc32)cc(OC)c1OC [Compound 23, (E,Z)-3-(3,4,5-Trimethoxybenzylidene)-2-oxindole] | 25.7 µM |  | IC50 [1, 3]: 1.6 ± 0.14 µM
O=C1Nc2ccc(Br)cc2C1=Cc1cccnc1 [Compound 8, 5-bromo-3-(3-pyridinylmethylidene)-2-oxindole] | 22.3 ± 1.42 µM | 44.2% | 
O=C1Nc2ccccc2C1=Cc1ccc(O)cc1 [Compound 14, 3-(4-hydroxybenzylidene)-2-oxindole] | 80.9 ± 12.2 µM |  | IC50 [1]: > 50 µM
